# Source: US9695129B2, “Parasiticidal compositions comprising benzimidazole derivatives, methods and uses thereof” (MERIAL INC., priority 2012, dated 2017)
# System: adult F. hepatica
# Experiment: In vitro test on adult F. hepatica (viability scale, effective concentration)
# Set-up: species or system Fasciola hepatica
# Conditions: Fasciola hepatica, 72 h, read-out: Effective in vitro concentration
# Protocol: Representative compounds of formula (I), formula (II), and formula (III) were tested in vitro against F. hepatica as follows. Adult F. hepatica (fluke) were collected from infected bovine livers obtained from a local abattoir (Basel, Switzerland). The worms were quickly washed with 0.9% (w/v) NaCl and placed in 6 or 12-well plates (Costar). Culture medium in each well contained RPMI 1640 (Gibco) at 37° C., which was supplemented with antibiotics (50 μg/ml streptomycin and 50 IU/ml penicillin; Gibco) and 80 μg/ml of a haemin solution. The haemin solution was prepared as follows: 5 mg haemin was dissolved in 1 ml of 0.1M aqueous solution of NaOH, and 3.95 ml of PBS (pH=7.4) and 0.05 ml of 1M HCl were added to adjust the pH to 7.1-7.4 (Keiser and Morson, 2008). Cultures were kept at 37° C. in an atmosphere of 5% CO2. To monitor the temporal effects of test compounds in vitro, 3 flukes were incubated for 72 h in the presence of 50 or 100 μg/ml of each test compound. At 24, 48, and 72 h, worms were examined using a dissecting microscope. For the adult worms, a viability scale ranging from 4 (normal movements) to 1 (death; no movement observed for two min using a microscope) was used.
# (§1) Table 1 lists representative compounds of formula (I) of the present invention and their effective in vitro concentrations against F. hepatica. All compounds were tested in vitro on the adult stage of F. hepatica as described above. Each data point refers to at least two independent experiments. For Table 1, R2 is H, R4 is Cl and R5 is H.
# as §1, with “2” for “1”, “(II)” for “(I)”, “2 compounds, the 2-position of the benzimidazole ring” for “1, R2”, “methylthio, R6” for “H, R4”, “H” for “Cl”, “R9” for “R5”
# as §1, with “3” for “1”, “(III)” for “(I)”, “3, the 2-position of the benzimidazole ring” for “1, R2”, “trifluoromethylthio, R10” for “H, R4”, “H” for “Cl”, “R13” for “R5”
row,Molecule,minimal effective concentration [µg/mL]
1,"FC(F)(F)c1nc2cc(Cl)c(-c3cc(Cl)cc(Cl)c3Cl)cc2[nH]1 [Compound 261, 6-chloro-5-(2,3,5-trichlorophenyl)-2-trifluoromethylbenzimidazole]",5
2,"Fc1ccc(Oc2cc3[nH]c(C(F)(F)C(F)(F)C(F)(F)F)nc3cc2Cl)cc1 [Compound 284, 5-chloro-6-(4-fluorophenoxy)-2-(heptafluoropropyl)-1H-1,3-benzodiazole]",5
3,"FC(F)(F)c1nc2cc(Cl)c(-c3cc(Cl)cc(Cl)c3)cc2[nH]1 [Compound 247, 6-chloro-5-(3,5-dichlorophenyl)-2-trifluoromethylbenzimidazole]",5
4,"Fc1ccc(Oc2cc3[nH]c(C(F)(F)C(F)(F)C(F)(F)F)nc3cc2Cl)c(F)c1 [Compound 279, 5-chloro-6-(2,4-difluorophenoxy)-2-(heptafluoropropyl)-1H-1,3-benzodiazole]",< 5
5,"FC(F)(F)Sc1nc2cc(Cl)c(-c3cccc(Cl)c3)cc2[nH]1 [Compound 103, 6-chloro-5-(3-chlorophenyl)-2-trifluoromethylthiobenzimidazole]",5
6,"FC(F)(F)Sc1nc2cc(Cl)c(-c3ccc(Cl)cc3)cc2[nH]1 [Compound 102, 6-chloro-5-(4-chlorophenyl)-2-trifluoromethylthiobenzimidazole]",5

# Same assay, conditions: Fasciola hepatica; Table 1, formula (I); adult flukes incubated up to 72 h; at least two independent experiments; read-out: Effective in vitro concentration
row,Molecule,minimal effective concentration [µg/mL]
1,"FC(F)(F)c1nc2cc(Cl)c(-c3ccc(Cl)c(Cl)c3)cc2[nH]1 [Compound 258, 6-chloro-5-(3,4-dichlorophenyl)-2-trifluoromethylbenzimidazole]",5
2,"FC(F)(F)c1nc2cc(Cl)c(-c3ccc(Cl)cc3C(F)(F)F)cc2[nH]1 [Compound 304, 5-chloro-6-[4-chloro-2-(trifluoromethyl)phenyl]-2-(trifluoromethyl)-1H-1,3-benzodiazole]",20
3,"Fc1ccc(Oc2cc3[nH]c(C(F)(F)C(F)(F)F)nc3cc2Cl)c(F)c1 [Compound 278, 5-chloro-6-(2,4-difluorophenoxy)-2-(pentafluoroethyl)-1H-1,3-benzodiazole]",< 5
4,"FC(F)(F)c1ccc(Oc2cc3[nH]c(C(F)(F)F)nc3cc2Cl)cc1 [Compound 286, 5-chloro-2-(trifluoromethyl)-6-[4-(trifluoromethyl)phenoxy]-1H-1,3-benzodiazole]",20
5,"FC(F)(F)c1ccc(Oc2cc3[nH]c(C(F)(F)C(F)(F)F)nc3cc2Cl)c(Cl)c1 [Compound 296, 5-chloro-6-[2-chloro-4-(trifluoromethyl)phenoxy]-2-(pentafluoroethyl)-1H-1,3-benzodiazole]",< 2.5
6,"FC(F)(F)c1ccc(-c2cc3[nH]c(C(F)(F)F)nc3cc2Cl)c(C(F)(F)F)c1 [Compound 301, 6-[2,4-bis(trifluoromethyl)phenyl]-5-chloro-2-(trifluoromethyl)-1H-1,3-benzodiazole]",< 10
7,"FC(F)(F)c1ccc(-c2cc3[nH]c(C(F)(F)C(F)(F)F)nc3cc2Cl)c(Cl)c1 [Compound 308, 5-chloro-6-[2-chloro-4-(trifluoromethyl)phenyl]-2-(pentafluoroethyl)-1H-1,3-benzodiazole]",< 10
8,"FC(F)(F)c1ccc(Oc2cc3[nH]c(C(F)(F)C(F)(F)F)nc3cc2Cl)cc1 [Compound 287, 5-chloro-2-(pentafluoroethyl)-6-[4-(trifluoromethyl)phenoxy]-1H-1,3-benzodiazole]",50
9,"Fc1ccc(-c2cc3[nH]c(C(F)(F)C(F)(F)F)nc3cc2Cl)cc1 [Compound 281, 5-chloro-6-(4-fluorophenyl)-2-(pentafluoroethyl)-1H-1,3-benzodiazole]",5
10,"FC(F)(F)c1cc(Cl)ccc1-c1cc2[nH]c(C(F)(F)C(F)(F)C(F)(F)F)nc2cc1Cl [Compound 306, 5-chloro-6-[4-chloro-2-(trifluoromethyl)phenyl]-2-(heptafluoropropyl)-1H-1,3-benzodiazole]",20
11,"Fc1ccc(-c2cc3[nH]c(C(F)(F)F)nc3cc2Cl)cc1 [Compound 280, 5-chloro-6-(4-fluorophenyl)-2-(trifluoromethyl)-1H-1,3-benzodiazole]",20
12,"FC(F)(F)c1nc2cc(Cl)c(-c3ccc(Cl)cc3Cl)cc2[nH]1 [Compound 260, 6-chloro-5-(2,4-dichlorophenyl)-2-trifluoromethylbenzimidazole]",5
13,"FC(F)(F)c1ccc(-c2cc3[nH]c(C(F)(F)F)nc3cc2Cl)c(Cl)c1 [Compound 307, 5-chloro-6-[2-chloro-4-(trifluoromethyl)phenyl]-2-(trifluoromethyl)-1H-1,3-benzodiazole]",< 2.5
14,"FC(F)(F)c1ccc(-c2cc3[nH]c(C(F)(F)C(F)(F)F)nc3cc2Cl)cc1 [Compound 289, 5-chloro-2-(pentafluoroethyl)-6-[4-(trifluoromethyl)phenyl]-1H-1,3-benzodiazole]",< 2.5
15,"Fc1ccc(Oc2cc3[nH]c(C(F)(F)F)nc3cc2Cl)c(F)c1 [Compound 277, 5-chloro-6-(2,4-difluorophenoxy)-2-(trifluoromethyl)-1H-1,3-benzodiazole]",10
16,"FC(F)(F)c1ccc(-c2cc3[nH]c(C(F)(F)C(F)(F)F)nc3cc2Cl)c(C(F)(F)F)c1 [Compound 302, 6-[2,4-bis(trifluoromethyl)phenyl]-5-chloro-2-(pentafluoroethyl)-1H-1,3-benzodiazole]",< 2.5
17,"Fc1ccc(Oc2cc3[nH]c(C(F)(F)C(F)(F)F)nc3cc2Cl)cc1 [Compound 283, 5-chloro-6-(4-fluorophenoxy)-2-(pentafluoroethyl)-1H-1,3-benzodiazole]",< 2.5
18,"FC(F)(F)C(F)(F)c1nc2cc(Cl)c(-c3cccc(Cl)c3Cl)cc2[nH]1 [Compound 262-100, 5-chloro-6-(2,3-dichlorophenyl)-2-(pentafluoroethyl)-1H-1,3-benzodiazole]",10
19,"FC(F)(F)c1ccc(Oc2cc3[nH]c(C(F)(F)C(F)(F)C(F)(F)F)nc3cc2Cl)cc1 [Compound 288, 5-chloro-2-(heptafluoropropyl)-6-[4-(trifluoromethyl)phenoxy]-1H-1,3-benzodiazole]",20
20,"FC(F)(F)c1ccc(-c2cc3[nH]c(C(F)(F)C(F)(F)C(F)(F)F)nc3cc2Cl)c(Cl)c1 [Compound 309, 5-chloro-6-[2-chloro-4-(trifluoromethyl)phenyl]-2-(heptafluoropropyl)-1H-1,3-benzodiazole]",20
21,"FC(F)(F)C(F)(F)c1nc2cc(Cl)c(Oc3ccc(Cl)cc3Cl)cc2[nH]1 [Compound 276, 5-chloro-6-(2,4-dichlorophenoxy)-2-(pentafluoroethyl)-1H-1,3-benzodiazole]",< 5
22,"FC(F)(F)c1cc(Cl)ccc1-c1cc2[nH]c(C(F)(F)C(F)(F)F)nc2cc1Cl [Compound 305, 5-chloro-6-[4-chloro-2-(trifluoromethyl)phenyl]-2-(pentafluoroethyl)-1H-1,3-benzodiazole]",20
23,"FC(F)(F)c1nc2cc(Cl)c(Oc3ccc(Cl)cc3Cl)cc2[nH]1 [Compound 275, 5-chloro-6-(2,4-dichlorophenoxy)-2-(trifluoromethyl)-1H-1,3-benzodiazole]",10

# Same assay, conditions: Fasciola hepatica; Table 2, formula (II); adult flukes incubated up to 72 h; at least two independent experiments; read-out: Effective in vitro concentration
row,Molecule,minimal effective concentration [µg/mL]
1,"CSc1nc2cc(Cl)c(Oc3ccccc3Br)cc2[nH]1 [Compound 014, 6-chloro-5-(2-bromophenoxy)-2-methylthiobenzimidazole]",50
2,"CCCCCCc1cc2[nH]c(SC)nc2cc1Cl [Compound 024, 6-chloro-5-hexyl-2-methylthiobenzimidazole]",50
3,"CSc1nc2cc(Cl)c(Oc3cccc(C)c3C)cc2[nH]1 [Compound 019, 6-chloro-5-(2,3-dimethylphenoxy)-2-methylthiobenzimidazole]",20

# Same assay, conditions: Fasciola hepatica; Table 3, formula (III); adult flukes incubated up to 72 h; at least two independent experiments; read-out: Effective in vitro concentration
row,Molecule,minimal effective concentration [µg/mL]
1,"FC(F)(F)Sc1nc2cc(Cl)c(Oc3cccc(Cl)c3Cl)cc2[nH]1 [Compound 049, 6-chloro-5-(2,3-dichlorophenoxy)-2-trifluoromethylthiobenzimidazole]",10

# Same assay, conditions: Table 3, formula (III); adult flukes incubated up to 72 h; at least two independent experiments
row,Molecule,Effective in vitro concentration [µg/mL]
1,6-chloro-5-(2-butyl)-cyclopropyl-2-trifluoromethylthiobenzimidazole [Compound 108],10
